Source: patent US20040082635A1, “Fused cyclic compounds and medicinal use thereof” (priority 2001, published 2004)

Target: T1, HCV polymerase (Hepatitis C virus genotype 1b, UniProt P26663)
T1 construct: a region encoding NS5B (591 amino acids; J Virol 1991 Mar, 65(3), 1105-13) was amplified by PCR; 6 His (N); made in house; host or cells: Escherichia coli
Experiment: biochemical
Settings: read-out: HCV polymerase inhibitory activity IC50

T1 sequence (P26663 2420-3010): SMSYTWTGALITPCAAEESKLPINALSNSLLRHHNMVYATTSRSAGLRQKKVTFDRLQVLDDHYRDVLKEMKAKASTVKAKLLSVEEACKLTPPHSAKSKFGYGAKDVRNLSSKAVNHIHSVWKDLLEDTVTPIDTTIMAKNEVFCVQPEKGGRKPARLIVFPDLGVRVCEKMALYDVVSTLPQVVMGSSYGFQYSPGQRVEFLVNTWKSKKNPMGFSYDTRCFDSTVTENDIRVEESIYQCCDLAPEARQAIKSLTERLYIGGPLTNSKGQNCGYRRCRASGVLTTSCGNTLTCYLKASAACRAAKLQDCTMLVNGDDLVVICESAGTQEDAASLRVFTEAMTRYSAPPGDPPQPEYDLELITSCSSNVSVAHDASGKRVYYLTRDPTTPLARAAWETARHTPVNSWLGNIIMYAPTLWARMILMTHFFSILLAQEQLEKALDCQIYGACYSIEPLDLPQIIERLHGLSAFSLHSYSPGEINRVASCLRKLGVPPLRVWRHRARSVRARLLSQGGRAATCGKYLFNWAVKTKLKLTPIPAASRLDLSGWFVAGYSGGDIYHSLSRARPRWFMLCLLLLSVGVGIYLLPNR

`O=C(O)c1ccc2c(c1)nc(-c1ccc(OC[C@@H]3CCCN3c3ccc([N+](=O)[O-])cc3)cc1)n2C1CCCCC1` [Example 203, 1-cyclohexyl-2-{4-[{(2S)-1-(4-nitrophenyl)-2-pyrrolidinyl}-methoxy]phenyl}benzimidazole-5-carboxylic acid] showed an IC50 of 63 nM.

In the case of `CC(=O)Nc1ccc(N2CCC[C@H]2COc2ccc(-c3nc4cc(C(=O)O)ccc4n3C3CCCCC3)cc2)cc1` [Example 205, 2-{4-[{(2S)-1-(4-acetylaminophenyl)-2-pyrrolidinyl}methoxy]-phenyl}-1-cyclohexylbenzimidazole-5-carboxylic acid], the IC50 is reported as 77 nM.

`Cc1nc(COc2ccc(-c3nc4cc(C(=O)O)ccc4n3C3CCCCC3)cc2)c(-c2ccc(Cl)cc2)s1` [Example 206, 2-{4-[{5-(4-chlorophenyl)-2-methyl-4-thiazolyl}methoxy]phenyl}-1-cyclohexylbenzimidazole-5-carboxylic acid] showed an IC50 of 50 nM.

Work on `O=C(O)c1ccc2c(c1)nc(-c1ccc(OCc3cccc([N+](=O)[O-])c3-c3ccc(Cl)cc3)cc1)n2C1CCCCC1` [Example 208, 1-cyclohexyl-2-{4-[2-(4-chlorophenyl)-3-nitrobenzyloxy]phenyl}-benzimidazole-5-carboxylic acid] yielded an IC50 of 39 nM.

Molecule `O=C(O)c1ccc2c(c1)nc(-c1ccc(Oc3cccc(OC4CCOCC4)c3)cc1)n2C1CCCCC1` [Example 209, 1-cyclohexyl-2-{4-[3-(4-tetrahydropyranyloxy)phenoxy]phenyl}-benzimidazole-5-carboxylic acid] has an IC50 of 120 nM.

With `O=C(O)c1ccc2c(c1)nc(-c1ccc(Oc3cccc(OCc4ccc(C(F)(F)F)cc4)c3)cc1)n2C1CCCCC1` [Example 210, 1-cyclohexyl-2-{4-[3-(4-trifluoromethylbenzyloxy)phenoxy]phenyl}-benzimidazole-5-carboxylic acid] the IC50 was 310 nM.

With `CN1CCC(COc2cccc(Oc3ccc(-c4nc5cc(C(=O)O)ccc5n4C4CCCCC4)cc3)c2)CC1` [Example 211, 1-cyclohexyl-2-{4-[3-{(1-methyl-4-piperidyl)methoxy}phenoxy]-phenyl}benzimidazole-5-carboxylic acid] the IC50 was 59 nM.

`CC(C)(C)c1ccc(COc2cccc(Oc3ccc(-c4nc5cc(C(=O)O)ccc5n4C4CCCCC4)cc3)c2)cc1` [Example 212, 2-{4-[3-(4-tert-butylbenzyloxy)phenoxy]phenyl}-1-cyclohexylbenzimidazole-5-carboxylic acid] showed an IC50 of 230 nM.

In the case of `O=C(O)c1ccc2c(c1)nc(-c1ccc(Oc3cccc(OCc4ccccc4Cl)c3)cc1)n2C1CCCCC1` [Example 213, 2-{4-[3-(2-chlorobenzyloxy)phenoxy]phenyl}-1-cyclohexylbenzimidazole-5-carboxylic acid], the IC50 is reported as 100 nM.

`O=C(O)c1ccc2c(c1)nc(-c1ccc(Oc3cccc(-c4cccnc4)c3)cc1)n2C1CCCCC1` [Example 214, 1-cyclohexyl-2-{4-[3-(3-pyridyl)phenoxy]phenyl}benzimidazole-5-carboxylic acid] showed an IC50 of 59 nM.

`O=C(O)c1ccc2c(c1)nc(-c1ccc(Oc3cccc(-c4ccc(Cl)cc4)c3)cc1)n2C1CCCCC1` [Example 215, 2-{4-[3-(4-chlorophenyl)phenoxy]phenyl}-1-cyclohexylbenzimidazole-5-carboxylic acid] showed an IC50 of 78 nM.

Molecule `COc1ccc(-c2cccc(Oc3ccc(-c4nc5cc(C(=O)O)ccc5n4C4CCCCC4)cc3)c2)cc1` [Example 216, 1-cyclohexyl-2-{4-[3-(4-methoxyphenyl)phenoxy]phenyl}-benzimidazole-5-carboxylic acid] has an IC50 of 84 nM.

With `Cc1nc(-c2ccc(S(C)(=O)=O)cc2)c(COc2ccc(-c3nc4cc(C(=O)O)ccc4n3C3CCCCC3)cc2)s1` [Example 217, 1-cyclohexyl-2-{4-[{4-(4-methanesulfonylphenyl)-2-methyl-5-thiazolyl}methoxy]phenyl}benzimidazole-5-carboxylic acid] the IC50 was 58 nM.
